Measured values as given in patent publication US7847127B2, “Process for preparation of atovaquone and novel intermediates thereof” (IPCA Laboratories Limited, priority 2007, dated 2010).

Experiment: Stability of the physical form on storage under ambient conditions
Type: physicochemical
Conditions: stable = remains substantially in the same physical form for at least a month at 20° C./60% RH
Experimental: The term “stable,” as used herein, refers to the tendency to remain substantially in the same physical form for at least a month, preferably at least 6 months, more preferably at least a year, still more preferably at least 2 years, when stored under ambient conditions (20° C./60% RH) without external treatment. Substantially the same physical form in this context means that at least 50%, preferably at least 80% and more preferably at least 90% of the crystalline form remains.

Stability of the crystalline form: stable
Compound: O=C1C(O)=C([C@H]2CC[C@H](c3ccc(Cl)cc3)CC2)C(=O)c2ccccc21 [Form IPCA-ATO, trans-2-[4-(4-chlorophenyl)cyclohexyl]-3-hydroxy-1,4-naphthoquinone]
